# Measured values as given in PubChem BioAssay (NCI).
#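 Growth conditions: 96-well plates. Treatment: test compound, 48 hours, 5 concentrations. Analysis: linear interpolation between bracketing concentrations; unreached endpoints set to highest concentration. Abbreviation: GI50, concentration required for 50% inhibition of growth. TGI marks complete inhibition of growth.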
# Columns and labels:
# Assay in all cases: DTP human tumour cell line panel, 48 h
# [1] = tested on: SR leukemia
# [2] = tested on: UO-31 renal
# [3] = tested on: HS 578T breast
# [4] = tested on: SNB-19 CNS
# [5] = tested on: ACHN renal
# [6] = tested on: NCI-H460 lung
# [7] = tested on: SNB-75 CNS
# [8] = tested on: PC-3 prostate
# [9] = tested on: NCI-H226 lung
# [10] = tested on: NCI/ADR-RES ovarian
# [11] = tested on: M14 melanoma
# [12] = tested on: SN12C renal
# [13] = tested on: SK-MEL-5 melanoma
# [14] = tested on: HOP-62 NSCLC
# [15] = tested on: MALME-3M melanoma
# [16] = tested on: COLO 205 colon
# [17] = tested on: HCT-15 colon
# [18] = tested on: UACC-257 melanoma
# [19] = tested on: HCC-2998 colon
# [20] = tested on: OVCAR-3 ovarian
# [21] = tested on: CCRF-CEM leukemia
# [22] = tested on: CAKI-1 renal
# [23] = tested on: RPMI-8226 leukemia
# [24] = tested on: MDA-MB-231 breast
# [25] = tested on: HL-60(TB) leukemia
# [26] = tested on: DU-145 prostate
# [27] = tested on: UACC-62 melanoma
# [28] = tested on: TK-10 renal
# [29] = tested on: OVCAR-5 ovarian
# [30] = tested on: MCF7 breast
# [31] = tested on: RXF 393 renal
# [32] = tested on: HOP-92 NSCLC
# [33] = tested on: SF-268 CNS
# [34] = tested on: HT29 colon
# [35] = tested on: BT-549 breast
# [36] = tested on: MOLT-4 leukemia
# [37] = tested on: 786-0 renal
# [38] = tested on: MDA-MB-435
# [39] = tested on: SK-OV-3 ovarian
# [40] = tested on: EKVX NSCLC
# [41] = tested on: SW-620 colon
# [42] = tested on: T-47D breast
# [43] = tested on: KM12 colon
# [44] = tested on: OVCAR-4 ovarian
# [45] = tested on: LOX IMVI melanoma
# [46] = tested on: IGROV1 ovarian
# [47] = tested on: NCI-H522 lung
# [48] = tested on: HCT-116 colon
# [49] = tested on: SF-295 CNS
# [50] = tested on: SK-MEL-28 melanoma
# [51] = tested on: NCI-H23 lung
# [52] = tested on: K-562 leukemia
# [53] = tested on: A498 renal
# [54] = tested on: OVCAR-8 ovarian
# [55] = tested on: SF-539 CNS
# [56] = tested on: SK-MEL-2 melanoma
# [57] = tested on: U251 CNS
# [58] = tested on: A549 NSCLC
structure (smiles),measurement,setting,value
COc1cc2c(cc1Nc1nc(Nc3ccsc3C(N)=O)c3cc[nH]c3n1)N(C(=O)CN(C)C)CCC2(C)C,GI50,[1],5.96 nM
same,TGI,[1],4.6 µM
same,GI50,[2],1090 nM
same,TGI,[2],4.69 µM
same,GI50,[3],1110 nM
same,TGI,[3],5.13 µM
same,GI50,[4],3.62 µM
same,TGI,[4],7.1 µM
same,GI50,[5],2560 nM
same,TGI,[5],5.53 µM
same,GI50,[6],889 nM
same,TGI,[6],5.3 µM
same,GI50,[7],2700 nM
same,TGI,[7],5.9 µM
same,GI50,[8],2550 nM
same,TGI,[8],7.01 µM
same,GI50,[9],763 nM
same,TGI,[9],4.92 µM
same,GI50,[10],2010 nM
same,TGI,[10],8.49 µM
same,GI50,[11],1430 nM
same,TGI,[11],5.68 µM
same,GI50,[12],3.13 µM
same,TGI,[12],7.18 µM
same,GI50,[13],797 nM
same,TGI,[13],3.89 µM
same,GI50,[14],1650 nM
same,TGI,[14],5.3 µM
same,GI50,[15],1480 nM
same,TGI,[15],5.62 µM
same,GI50,[16],< 2.5 nM
same,TGI,[16],887 nM
same,GI50,[17],1840 nM
same,TGI,[17],5.62 µM
same,GI50,[18],75.3 nM
same,TGI,[18],4.34 µM
same,GI50,[19],485 nM
same,TGI,[19],4.47 µM
same,GI50,[20],2050 nM
same,TGI,[20],5.17 µM
same,GI50,[21],685 nM
same,TGI,[21],3.78 µM
same,GI50,[22],1370 nM
same,TGI,[22],6.69 µM
same,GI50,[23],1090 nM
same,TGI,[23],5.21 µM
same,GI50,[24],3.22 µM
same,TGI,[24],7.42 µM
same,GI50,[25],< 2.5 nM
same,TGI,[25],2040 nM
same,GI50,[26],2880 nM
same,TGI,[26],5.96 µM
same,GI50,[27],1770 nM
same,TGI,[27],5.44 µM
same,GI50,[28],1360 nM
same,TGI,[28],4.97 µM
same,GI50,[29],41.2 nM
same,TGI,[29],3.67 µM
same,GI50,[30],< 2.5 nM
same,TGI,[30],2970 nM
same,GI50,[31],1670 nM
same,TGI,[31],5.09 µM
same,GI50,[32],< 2.5 nM
same,TGI,[32],833 nM
same,GI50,[33],2600 nM
same,TGI,[33],5.75 µM
same,GI50,[34],< 2.5 nM
same,TGI,[34],2530 nM
same,GI50,[35],2010 nM
same,TGI,[35],5.6 µM
same,GI50,[36],1900 nM
same,TGI,[36],8.91 µM
same,GI50,[37],3.06 µM
same,TGI,[37],6.82 µM
same,GI50,[38],299 nM
same,TGI,[38],2490 nM
same,GI50,[39],3.64 µM
same,TGI,[39],6.94 µM
same,GI50,[40],453 nM
same,TGI,[40],4.97 µM
same,GI50,[41],357 nM
same,TGI,[41],4.1 µM
same,GI50,[42],3.08 µM
same,TGI,[42],7.11 µM
same,GI50,[43],647 nM
same,TGI,[43],2610 nM
same,GI50,[44],3.02 µM
same,TGI,[44],6.59 µM
same,GI50,[45],1990 nM
same,TGI,[45],6.08 µM
same,GI50,[46],3.23 µM
same,TGI,[46],7.31 µM
same,GI50,[47],764 nM
same,TGI,[47],3.76 µM
same,GI50,[48],1050 nM
same,TGI,[48],4.8 µM
same,GI50,[49],3.33 µM
same,TGI,[49],7.39 µM
same,GI50,[50],3.06 µM
same,TGI,[50],6.41 µM
same,GI50,[51],791 nM
same,TGI,[51],5.15 µM
same,GI50,[52],1750 nM
same,TGI,[52],6.47 µM
same,GI50,[53],1180 nM
same,TGI,[53],4.97 µM
same,GI50,[54],1640 nM
same,TGI,[54],5.69 µM
same,GI50,[55],3.35 µM
same,TGI,[55],7.05 µM
same,GI50,[56],515 nM
same,TGI,[56],3.63 µM
same,GI50,[57],3.09 µM
same,TGI,[57],6.25 µM
same,GI50,[58],975 nM
same,TGI,[58],4.69 µM
